Measurements taken from patent publication US12275731B2, “Azaindole inhibitors of wild-type and mutant forms of LRRK2” (DANA-FARBER CANCER INSTITUTE, INC., priority 2018, dated 2025).

Experiments:
Test in all cases: KinomeScan profiling
Format in all cases: binding
ERK2 = ERK2 (Homo sapiens, UniProt P28482); conditions: ERK2, 1 μM; read-out: % control
Summary of the method: (§1)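 Luminescence (RLU) was converted to percent of control, with DMSO set as 100% and a reference compound as 0%. Test compounds were run at 1 μM against 468 kinases. Kinases showing below 35% of control were scored as bound.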

KIT(V559D, V654A) = molecular target: T1, KIT(V559D, V654A) (Homo sapiens, UniProt P10721, V559D/V654A); conditions: read-out: % control
T1 construct: purchased KinomeScan®
T1 sequence (P10721 26-976 V559D/V654A): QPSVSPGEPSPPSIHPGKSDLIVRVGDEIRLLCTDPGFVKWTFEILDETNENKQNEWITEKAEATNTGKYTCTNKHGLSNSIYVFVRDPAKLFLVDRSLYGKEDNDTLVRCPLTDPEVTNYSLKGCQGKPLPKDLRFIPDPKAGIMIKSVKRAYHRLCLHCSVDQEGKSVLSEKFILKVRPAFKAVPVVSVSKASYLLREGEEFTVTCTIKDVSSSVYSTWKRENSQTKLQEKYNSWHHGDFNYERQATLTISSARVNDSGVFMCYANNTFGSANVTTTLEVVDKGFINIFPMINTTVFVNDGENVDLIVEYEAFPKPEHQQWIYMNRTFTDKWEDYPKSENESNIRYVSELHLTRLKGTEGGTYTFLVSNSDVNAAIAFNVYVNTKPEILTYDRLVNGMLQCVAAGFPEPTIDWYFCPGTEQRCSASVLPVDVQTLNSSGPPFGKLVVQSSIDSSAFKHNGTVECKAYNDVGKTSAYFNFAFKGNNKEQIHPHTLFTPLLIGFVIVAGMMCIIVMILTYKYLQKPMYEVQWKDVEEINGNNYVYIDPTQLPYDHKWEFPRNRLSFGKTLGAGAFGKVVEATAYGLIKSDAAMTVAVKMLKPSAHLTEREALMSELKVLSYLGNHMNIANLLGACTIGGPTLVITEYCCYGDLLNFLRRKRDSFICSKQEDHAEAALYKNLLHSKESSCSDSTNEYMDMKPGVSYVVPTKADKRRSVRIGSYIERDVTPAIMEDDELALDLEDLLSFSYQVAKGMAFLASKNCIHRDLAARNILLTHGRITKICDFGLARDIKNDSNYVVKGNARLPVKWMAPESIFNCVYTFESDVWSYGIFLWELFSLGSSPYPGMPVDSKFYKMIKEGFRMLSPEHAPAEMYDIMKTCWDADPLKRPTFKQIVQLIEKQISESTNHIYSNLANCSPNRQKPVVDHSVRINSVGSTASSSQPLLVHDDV
Summary of the method: as §1

MAPKAPK5 = molecular target: T2, MAPKAPK5 (Homo sapiens, UniProt Q8IW41); conditions: MAPKAPK5, 1 μM; read-out: % control
T2 sequence (Q8IW41 1-473): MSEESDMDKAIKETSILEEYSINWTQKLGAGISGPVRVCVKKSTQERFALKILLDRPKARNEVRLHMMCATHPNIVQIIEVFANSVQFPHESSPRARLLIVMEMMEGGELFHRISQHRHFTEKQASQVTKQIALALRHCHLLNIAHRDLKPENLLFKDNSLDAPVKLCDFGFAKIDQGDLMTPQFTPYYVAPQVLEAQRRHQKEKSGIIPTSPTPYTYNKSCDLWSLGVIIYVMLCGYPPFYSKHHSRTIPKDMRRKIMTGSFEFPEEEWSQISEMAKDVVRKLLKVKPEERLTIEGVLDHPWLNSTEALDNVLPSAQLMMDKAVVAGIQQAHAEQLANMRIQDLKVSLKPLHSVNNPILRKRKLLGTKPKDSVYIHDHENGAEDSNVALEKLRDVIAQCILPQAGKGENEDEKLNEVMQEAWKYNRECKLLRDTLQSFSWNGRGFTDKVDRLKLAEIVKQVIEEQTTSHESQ
Summary of the method: as §1

NDR2 = NDR2 (Homo sapiens, UniProt Q9Y2H1); conditions: NDR2, 1 μM; read-out: % control
Sequence of NDR2 (Q9Y2H1 whole entry): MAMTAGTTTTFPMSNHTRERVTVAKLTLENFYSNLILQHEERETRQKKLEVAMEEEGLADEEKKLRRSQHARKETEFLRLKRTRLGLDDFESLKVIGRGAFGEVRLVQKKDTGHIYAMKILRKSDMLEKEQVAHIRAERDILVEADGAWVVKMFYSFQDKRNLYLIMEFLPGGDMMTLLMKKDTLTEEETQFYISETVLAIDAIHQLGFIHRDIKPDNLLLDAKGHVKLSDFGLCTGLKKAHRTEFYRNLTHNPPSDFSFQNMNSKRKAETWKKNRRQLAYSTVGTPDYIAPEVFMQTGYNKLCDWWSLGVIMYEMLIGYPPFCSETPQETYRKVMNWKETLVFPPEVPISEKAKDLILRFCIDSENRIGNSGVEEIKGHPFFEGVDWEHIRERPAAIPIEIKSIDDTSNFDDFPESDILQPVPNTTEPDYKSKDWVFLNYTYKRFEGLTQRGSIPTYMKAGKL
Summary of the method: as §1

PLK1 = PLK1 (Homo sapiens, UniProt P53350); conditions: PLK1, 1 μM; read-out: % control
Sequence of PLK1 (P53350 whole entry): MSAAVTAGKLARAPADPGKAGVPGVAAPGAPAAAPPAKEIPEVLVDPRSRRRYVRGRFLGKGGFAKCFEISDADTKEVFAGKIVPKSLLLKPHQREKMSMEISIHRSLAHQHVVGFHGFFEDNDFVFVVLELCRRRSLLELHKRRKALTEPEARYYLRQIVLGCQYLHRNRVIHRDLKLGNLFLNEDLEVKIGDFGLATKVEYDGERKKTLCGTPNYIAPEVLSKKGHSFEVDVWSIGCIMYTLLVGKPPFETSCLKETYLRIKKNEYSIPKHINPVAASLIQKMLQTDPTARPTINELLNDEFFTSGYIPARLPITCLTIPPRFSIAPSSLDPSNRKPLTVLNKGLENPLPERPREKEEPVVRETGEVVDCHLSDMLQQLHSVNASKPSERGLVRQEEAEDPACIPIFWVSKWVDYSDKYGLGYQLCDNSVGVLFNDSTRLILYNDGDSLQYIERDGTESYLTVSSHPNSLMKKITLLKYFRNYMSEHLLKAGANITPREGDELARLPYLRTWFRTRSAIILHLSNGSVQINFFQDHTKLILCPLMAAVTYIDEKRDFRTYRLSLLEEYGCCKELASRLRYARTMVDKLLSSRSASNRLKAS
Summary of the method: as §1

PRKCI = molecular target: T3, PRKCI (Homo sapiens, UniProt P41743); conditions: read-out: % control
T3 sequence (P41743 1-596): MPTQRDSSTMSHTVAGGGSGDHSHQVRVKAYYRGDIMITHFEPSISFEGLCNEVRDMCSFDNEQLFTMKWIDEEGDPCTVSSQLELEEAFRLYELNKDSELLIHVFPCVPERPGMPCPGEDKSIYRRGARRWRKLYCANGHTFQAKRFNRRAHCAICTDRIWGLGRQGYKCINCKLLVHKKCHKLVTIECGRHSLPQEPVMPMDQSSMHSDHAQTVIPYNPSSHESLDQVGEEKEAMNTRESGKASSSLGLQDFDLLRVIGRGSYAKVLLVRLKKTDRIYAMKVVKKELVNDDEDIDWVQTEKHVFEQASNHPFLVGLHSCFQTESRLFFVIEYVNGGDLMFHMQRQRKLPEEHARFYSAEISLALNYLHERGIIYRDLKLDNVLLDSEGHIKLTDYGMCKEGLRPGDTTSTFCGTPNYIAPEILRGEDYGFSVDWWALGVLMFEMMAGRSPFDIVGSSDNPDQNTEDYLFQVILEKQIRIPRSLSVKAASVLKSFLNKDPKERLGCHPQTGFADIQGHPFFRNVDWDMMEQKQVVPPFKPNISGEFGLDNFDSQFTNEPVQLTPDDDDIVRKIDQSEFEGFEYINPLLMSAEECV
Summary of the method: as §1

TAOK2 = molecular target: T4, TAOK2 (Homo sapiens, UniProt Q9UL54); conditions: TAOK2, 1 μM; read-out: % control
T4 construct: purchased KinomeScan® (panel service)
T4 sequence (Q9UL54 1-1235): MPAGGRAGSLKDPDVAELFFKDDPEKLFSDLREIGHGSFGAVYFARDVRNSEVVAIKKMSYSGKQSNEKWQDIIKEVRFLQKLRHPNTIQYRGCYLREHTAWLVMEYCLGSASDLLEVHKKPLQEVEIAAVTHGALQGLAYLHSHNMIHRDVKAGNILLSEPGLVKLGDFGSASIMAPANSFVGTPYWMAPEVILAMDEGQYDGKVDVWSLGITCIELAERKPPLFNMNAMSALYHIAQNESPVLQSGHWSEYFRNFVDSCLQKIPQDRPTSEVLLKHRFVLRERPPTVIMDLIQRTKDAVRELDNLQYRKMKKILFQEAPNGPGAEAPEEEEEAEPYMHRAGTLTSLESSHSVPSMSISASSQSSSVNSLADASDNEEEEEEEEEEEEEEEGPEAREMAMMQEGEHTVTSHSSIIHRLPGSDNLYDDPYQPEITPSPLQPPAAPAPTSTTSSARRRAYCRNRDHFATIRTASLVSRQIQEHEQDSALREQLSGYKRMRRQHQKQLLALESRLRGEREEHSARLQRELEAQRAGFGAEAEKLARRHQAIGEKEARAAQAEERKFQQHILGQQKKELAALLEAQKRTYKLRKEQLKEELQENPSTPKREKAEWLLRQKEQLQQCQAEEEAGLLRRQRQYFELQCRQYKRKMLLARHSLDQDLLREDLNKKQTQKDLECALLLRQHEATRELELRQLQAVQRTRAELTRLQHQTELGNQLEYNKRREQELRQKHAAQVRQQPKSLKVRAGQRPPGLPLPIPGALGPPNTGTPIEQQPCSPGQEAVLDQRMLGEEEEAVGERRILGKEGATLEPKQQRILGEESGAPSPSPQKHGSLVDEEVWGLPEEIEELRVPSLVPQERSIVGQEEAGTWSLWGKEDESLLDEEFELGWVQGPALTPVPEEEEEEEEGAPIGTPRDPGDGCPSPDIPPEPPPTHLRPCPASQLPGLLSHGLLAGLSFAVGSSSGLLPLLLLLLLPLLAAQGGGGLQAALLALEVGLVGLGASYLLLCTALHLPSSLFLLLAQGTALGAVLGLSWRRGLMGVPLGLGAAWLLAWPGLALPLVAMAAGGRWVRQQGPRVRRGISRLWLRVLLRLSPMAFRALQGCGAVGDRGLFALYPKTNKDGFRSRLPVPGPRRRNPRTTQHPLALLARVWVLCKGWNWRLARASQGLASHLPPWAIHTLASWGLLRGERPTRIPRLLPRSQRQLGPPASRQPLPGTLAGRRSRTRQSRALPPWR
Summary of the method: as §1

Sequence of ERK2 (P28482 whole entry): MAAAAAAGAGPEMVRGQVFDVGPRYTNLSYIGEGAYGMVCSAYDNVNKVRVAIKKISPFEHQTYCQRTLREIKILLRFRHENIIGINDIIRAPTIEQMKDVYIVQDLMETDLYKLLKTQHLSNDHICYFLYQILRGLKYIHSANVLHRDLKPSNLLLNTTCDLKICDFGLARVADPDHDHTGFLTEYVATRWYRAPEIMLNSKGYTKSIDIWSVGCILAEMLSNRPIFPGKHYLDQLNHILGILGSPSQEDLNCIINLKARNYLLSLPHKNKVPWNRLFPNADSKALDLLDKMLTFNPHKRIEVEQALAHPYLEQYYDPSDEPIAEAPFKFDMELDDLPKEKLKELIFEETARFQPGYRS

Row | Structure (SMILES) | remaining binding at 1 µM (ERK2) [%] | remaining binding at 1 µM (KIT(V559D, V654A)) [%] | remaining binding at 1 µM (MAPKAPK5) [%] | remaining binding at 1 µM (NDR2) [%] | remaining binding at 1 µM (PLK1) [%] | remaining binding at 1 µM (PRKCI) [%] | remaining binding at 1 µM (TAOK2) [%]
1 | CNc1c(-c2ccc(C(=O)N3CCC(N4CCOCC4)CC3)cc2)cnc2[nH]cc(Cl)c12 [Compound 96, (4-(3-chloro-4-(methylamino)-1H-pyrrolo[2,3-b]pyridin-5-yl)phenyl)(4-morpholinopiperidin-1-yl)methanone] | 95 | 94 | 100 | 19 | 64 | 69 | 69
2 | O=C(c1ccc(-c2cnc3[nH]cc(Cl)c3c2NC2CCCC2)cc1)N1CCC(N2CCOCC2)CC1 [Compound 101, (4-(3-chloro-4-(cyclopentylamino)-1H-pyrrolo[2,3-b]pyridin-5-yl)phenyl)(4-morpholinopiperidin-1-yl)methanone] | 93 | 100 | 100 | 63 | 98 | 100 | 81
3 | CNc1c(-c2cnn([C@H]3CCN(C(C)=O)C[C@@H]3F)c2)cnc2[nH]cc(Cl)c12 [Compound 77, 1-((3S,4S)-4-(4-(3-chloro-4-(methylamino)-1H-pyrrolo[2,3-b]pyridin-5-yl)-1H-pyrazol-1-yl)-3-fluoropiperidin-1-yl)ethan-1-one] | 91 | 53 | 100 | 21 | 65 | 67 | 69
